Where two headings read alike, the source gives them in different places.

In assay [1] the target is T1, CB1 receptor (Homo sapiens, UniProt P21554).
T1 construct: expressed in transfected cells
Description: cell-based. A digest of the protocol: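 Read-out is forskolin-driven CRE-β-gal reporter activity in stably transfected human-CB1 SK-N-MC cells, normalised to vehicle (100%); agonism lowers, inverse agonism raises signal. Values are EC50 (linear regression, multiple concentrations) or % change at one concentration.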

A further assay concerns the target T2, CB2 receptor (Homo sapiens, UniProt P34972).
T2 construct: expressed in transfected cells
Description: Binding assay for CB2 agonists or inverse agonists (SK-N-MC membranes, [3H]-CP-55,940). A digest of the protocol:
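IC50 came from percent-inhibition data over several compound concentrations, fitted by linear regression. Binding used semi-purified membranes of human CB2-transfected SK-N-MC cells, 90 min at 30 °C, pH 7.5 Tris-HCl with MgCl2, EDTA and BSA, then filtration and scintillation counting.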

For assay [2], the target named is T1, CB1 receptor. Description: Binding assay for CB1 agonists or inverse agonists (SK-N-MC membranes, [3H]-CP-55,940). The following applies: for IC50: Cannabinoid CB1 Receptor Binding IC50, calculated by linear regression from percent inhibition at various test concentrations; for inhibition at 0.2 µM: read-out: CB1 receptor binding percent inhibition, test concentration 0.2 μM (footnote 2). A digest of the protocol:
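Radioligand displacement: [3H]-CP-55,940 at […], 90 min at 30° C, pH 7.5 Tris buffer with 0.5 mg/mL fatty-acid-free BSA, using semi-purified membranes of human-CB1-transfected SK-N-MC cells. Bound counts collected on GF/C filters, 10 uM WIN 55,212 for non-specific; IC50 from percent inhibition over several concentrations.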

[3] abbreviates: CB1 Receptor Functional Inverse Agonist EC50, forskolin induced β-galactosidase activity, SK-N-MC cells.
Where [4] appears, read: read-out: CB2 receptor binding percent inhibition, test concentration 0.2 μM (footnote 2).
Where [5] appears, read: CB1 Receptor Functional Agonist EC50, SK-N-MC cells, forskolin induced β-galactosidase activity.

T2 sequence (P34972 whole entry): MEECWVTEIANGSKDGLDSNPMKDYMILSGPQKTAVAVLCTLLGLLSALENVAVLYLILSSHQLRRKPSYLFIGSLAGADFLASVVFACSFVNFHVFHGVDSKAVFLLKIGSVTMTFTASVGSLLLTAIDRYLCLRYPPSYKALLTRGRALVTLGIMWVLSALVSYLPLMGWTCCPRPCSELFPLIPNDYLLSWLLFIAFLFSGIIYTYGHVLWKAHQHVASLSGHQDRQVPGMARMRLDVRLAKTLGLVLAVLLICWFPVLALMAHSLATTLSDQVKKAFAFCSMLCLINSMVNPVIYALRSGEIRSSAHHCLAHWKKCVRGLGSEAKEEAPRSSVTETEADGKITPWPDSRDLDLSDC
T1 sequence (P21554 whole entry): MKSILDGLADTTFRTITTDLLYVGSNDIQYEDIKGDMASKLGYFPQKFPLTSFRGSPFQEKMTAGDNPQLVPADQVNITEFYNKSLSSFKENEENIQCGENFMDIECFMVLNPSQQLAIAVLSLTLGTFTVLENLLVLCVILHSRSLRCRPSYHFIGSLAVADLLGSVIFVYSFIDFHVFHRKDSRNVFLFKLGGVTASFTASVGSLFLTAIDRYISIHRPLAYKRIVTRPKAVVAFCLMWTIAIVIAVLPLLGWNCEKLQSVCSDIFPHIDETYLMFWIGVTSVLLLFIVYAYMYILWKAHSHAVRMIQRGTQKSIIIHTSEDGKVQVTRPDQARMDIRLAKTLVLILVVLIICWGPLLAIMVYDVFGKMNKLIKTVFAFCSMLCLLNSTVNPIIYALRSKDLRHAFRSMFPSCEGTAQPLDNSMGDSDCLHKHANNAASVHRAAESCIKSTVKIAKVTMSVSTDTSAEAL

As usually defined, the EC50 is the concentration needed to bring the measured effect to its halfway point. By IC50 is commonly meant the concentration that inhibits the measured activity by half. `C[C@H](NC(=O)c1nn(-c2ccc(Cl)cc2Cl)c2c1CCCC/C2=C\c1ccc(F)cc1)C1CCCCC1` [Cpd 148, (8E)-1-(2,4-dichloro-phenyl)-8-(4-fluoro-benzylidene)-1,4,5,6,7,8-hexahydro-cycloheptapyrazole-3-carboxylic acid [(1S)-1-cyclohexyl-ethyl]-amide]: the EC50 at CB1 receptor [1] (setting [3]) was 200 nM. Further, the inhibition at 0.2 µM on CB2 receptor (setting [4]) is 39%. Also, on CB1 receptor [2], the IC50 was 80 nM and the inhibition at 0.2 µM was determined as 69%.

`C[C@H](NC(=O)c1nn(-c2ccc(Cl)cc2Cl)c2c1CCCC/C2=C\c1ccc(F)cc1)c1ccccc1` [Cpd 149, (8E)-1-(2,4-dichloro-phenyl)-8-(4-fluoro-benzylidene)-1,4,5,6,7,8-hexahydro-cycloheptapyrazole-3-carboxylic acid [(1S)-1-phenyl-ethyl]-amide] displayed an EC50 on CB1 receptor [1] (setting [3]) of 60 nM. On CB2 receptor (setting [4]), the inhibition at 0.2 µM came to 4%. For the same molecule, on CB1 receptor [2], the IC50 was 100 nM and the inhibition at 0.2 µM came out at 66%.

At CB1 receptor [1] (setting [3]), `O=C(NN1CCCCC1)c1nn(-c2ccc(Cl)cc2Cl)c2c1CCCC/C2=C\c1ccc(F)cc1` [Cpd 150, (8E)-1-(2,4-dichloro-phenyl)-8-(4-fluoro-benzylidene)-1,4,5,6,7,8-hexahydro-cycloheptapyrazole-3-carboxylic acid piperidin-1-ylamide] registered an EC50 of 20 nM. Further, on CB2 receptor (setting [4]), the inhibition at 0.2 µM was found to be 3%. Besides, at CB1 receptor [2], the IC50 was 100 nM and the inhibition at 0.2 µM stood at 65%.

For the molecule `O=C(NN1CCOCC1)c1nn(-c2ccc(Cl)cc2Cl)c2c1CCCC/C2=C\c1ccc(F)cc1` [Cpd 151, (8E)-1-(2,4-dichloro-phenyl)-8-(4-fluoro-benzylidene)-1,4,5,6,7,8-hexahydro-cycloheptapyrazole-3-carboxylic acid morpholin-4-ylamide], the EC50 on CB1 receptor [1] (setting [3]) came to 60 nM. In addition, the inhibition at 0.2 µM on CB2 receptor (setting [4]) stood at 15%; on CB1 receptor [2] it was 51%.

Consider `O=C(Nc1ccccn1)c1nn(-c2ccc(Cl)cc2Cl)c2c1CCCC/C2=C\c1ccc(Cl)cc1` [Cpd 152, (8E)-8-(4-chloro-benzylidene)-1-(2,4-dichloro-phenyl)-1,4,5,6,7,8-hexahydro-cycloheptapyrazole-3-carboxylic acid pyridin-2-ylamide], for which the EC50 on CB1 receptor [1] (forskolin induced β-galactosidase activity, SK-N-MC cells, read-out: CB1 Receptor Functional Inverse Agonist EC50) was found to be 200 nM. For the same molecule, the inhibition at 0.2 µM at CB2 receptor (test concentration 0.2 μM (footnote 2), read-out: CB2 receptor binding percent inhibition) is 21%; at CB1 receptor [2], 66%. Also, the inhibition at 0.0125 µM at CB1 receptor [2] (read-out: CB1 receptor binding percent inhibition, test concentration 0.0125 μM (footnote 13)) came out at 28%. The “CB1 receptor binding percent inhibition” value at CB1 receptor [2] (test concentration not stated) was 47%.

In the case of `O=C(NCc1ccccn1)c1nn(-c2ccc(Cl)cc2Cl)c2c1CCCC/C2=C\c1ccc(Cl)cc1` [Cpd 155, (8E)-8-(4-chloro-benzylidene)-1-(2,4-dichloro-phenyl)-1,4,5,6,7,8-hexahydro-cycloheptapyrazole-3-carboxylic acid (pyridin-2-ylmethyl)-amide], at CB1 receptor [1] (setting [3]), the EC50 is 30 nM. Besides, the inhibition at 0.2 µM was found to be 8% at CB2 receptor (setting [4]) and 72% at CB1 receptor [2]. In addition, the IC50 on CB1 receptor [2] was 70 nM.

Regarding `O=C(NCc1ccncc1)c1nn(-c2ccc(Cl)cc2Cl)c2c1CCCC/C2=C\c1ccc(Cl)cc1` [Cpd 156, (8E)-8-(4-chloro-benzylidene)-1-(2,4-dichloro-phenyl)-1,4,5,6,7,8-hexahydro-cycloheptapyrazole-3-carboxylic acid (pyridin-4-ylmethyl)-amide], the midpoint of the response on CB1 receptor [1] (setting [3]), the EC50, lay at 90 nM. The inhibition at 0.2 µM worked out at 36% at CB2 receptor (setting [4]) and 50% at CB1 receptor [2].

The molecule `O=C(NCCc1ccccn1)c1nn(-c2ccc(Cl)cc2Cl)c2c1CCCC/C2=C\c1ccc(Cl)cc1` [Cpd 157, (8E)-8-(4-chloro-benzylidene)-1-(2,4-dichloro-phenyl)-1,4,5,6,7,8-hexahydro-cycloheptapyrazole-3-carboxylic acid (2-pyridin-2-yl-ethyl)-amide] returned an EC50 at CB1 receptor [1] (setting [3]) of 40 nM. In addition, the inhibition at 0.2 µM at CB2 receptor (setting [4]) worked out at 5%. Moreover, on CB1 receptor [2], the IC50 was 100 nM and the inhibition at 0.2 µM was found to be 68%.

For the molecule `O=C(N[C@@H](CO)c1ccccc1)c1n[nH]c2c1CCCCC2Cc1cccc(Cl)c1` (stereo partly drawn) [Cpd 165, 8-(3-chloro-benzyl)-1,4,5,6,7,8-hexahydro-cycloheptapyrazole-3-carboxylic acid [(1R)-2-hydroxy-1-phenyl-ethyl]-amide], on CB1 receptor [1] (setting [5]), the midpoint of the response, the EC50, lay at 30 nM. For the same molecule, the figures for the inhibition at 0.2 µM at CB2 receptor (setting [4]) and at CB1 receptor [2] were 98% and 79%, respectively.

In the case of `O=C(N[C@@H](CO)Cc1ccccc1)c1n[nH]c2c1CCCCC2Cc1cccc(Cl)c1` (stereo partly drawn) [Cpd 167, 8-(3-chloro-benzyl)-1,4,5,6,7,8-hexahydro-cycloheptapyrazole-3-carboxylic acid [(1R)-1-benzyl-2-hydroxy-ethyl]-amide], the midpoint of the response on CB1 receptor [1] (setting [5]), the EC50, lay at 50 nM. Also, the values for the inhibition at 0.2 µM at CB2 receptor (setting [4]) and on CB1 receptor [2] were 97% and 57%, respectively.

In the case of `O=C(N[C@H](CCl)c1ccccc1)c1nn(-c2ccc(F)cc2F)c2c1CCCCC2Cc1ccc(F)cc1` (stereo partly drawn) [Cpd 172, 1-(2,4-difluoro-phenyl)-8-(4-fluoro-benzyl)-1,4,5,6,7,8-hexahydro-cycloheptapyrazole-3-carboxylic acid [(1S)-2-chloro-1-phenyl-ethyl]-amide], the EC50 at CB1 receptor [1] (setting [3]) is 100 nM. Besides, the inhibition at 0.2 µM on CB2 receptor (setting [4]) was 41%; on CB1 receptor [2], 64%.

In the case of `C[C@@H](NC(=O)c1nn(-c2ccc(S(N)(=O)=O)cc2)c2c1CCCC/C2=C\c1ccc(Cl)cc1)c1ccccc1` [Cpd 184, (8E)-8-(4-chloro-benzylidene)-1-(4-sulfamoyl-phenyl)-1,4,5,6,7,8-hexahydro-cycloheptapyrazole-3-carboxylic acid [(1R)-1-phenyl-ethyl]-amide], the EC50 on CB1 receptor [1] (setting [3]) was 3 nM. In addition, on CB2 receptor (setting [4]), the inhibition at 0.2 µM was determined as 27%. On CB1 receptor [2], the IC50 was 50 nM and the inhibition at 0.2 µM stood at 78%.

Regarding `C[C@@H](NC(=O)c1nn(-c2ccc(S(N)(=O)=O)cc2)c2c1CCCC/C2=C\c1ccc(Cl)cc1)C1CCCCC1` [Cpd 185, (8E)-8-(4-chloro-benzylidene)-1-(4-sulfamoyl-phenyl)-1,4,5,6,7,8-hexahydro-cycloheptapyrazole-3-carboxylic acid [(1R)-1-cyclohexyl-ethyl]-amide], on CB1 receptor [1] (setting [3]), the EC50 is less than 3 nM. The inhibition at 0.2 µM amounted to 56% at CB2 receptor (setting [4]) and 75% at CB1 receptor [2]. In addition, the IC50 at CB1 receptor [2] was 30 nM.

The molecule `O=C(c1nn(-c2ccc(Cl)cc2Cl)c2c1CCCC/C2=C\c1ccc(F)cc1)N1CCCC1c1ccccn1` (centres unmarked) [Cpd 188, (8E)-[1-(2,4-dichloro-phenyl)-8-(4-fluoro-benzylidene)-1,4,5,6,7,8-hexahydro-cycloheptapyrazol-3-yl]-(2-pyridin-2-yl-pyrrolidin-1-yl)-methanone] showed an EC50 on CB1 receptor [1] (setting [3]) of 10 nM. The inhibition at 0.2 µM on CB2 receptor (setting [4]) came to 36%. For the same molecule, on CB1 receptor [2], the IC50 was 100 nM and the inhibition at 0.2 µM stood at 64%.

Molecule `C[C@@H](NC(=O)c1nn(-c2ccccc2Cl)c2c1CCCC/C2=C\c1ccc(Cl)cc1)C1CCCCC1` [Cpd 189, (8E)-8-(4-chloro-benzylidene)-1-(2-chloro-phenyl)-1,4,5,6,7,8-hexahydro-cycloheptapyrazole-3-carboxylic acid [(1R)-1-cyclohexyl-ethyl]-amide] registered an EC50 at CB1 receptor [1] (setting [3]) of 10 nM. For the same molecule, the inhibition at 0.2 µM at CB2 receptor (setting [4]) came to 17%; on CB1 receptor [2], 78%. The IC50 at CB1 receptor [2] was 50 nM.

(Values after US8378117B2 (priority 2005, dated 2013).)
